Data reported in patent US20050208496A1, “Methods of testing for bronchial asthma or chronic obstructive pulmonary disease” (Genox Research, Inc., priority 2002, published 2005).

System: respiratory epithelial cells

With “IL-13: human IL-13 (Peprotech, Inc.) added to the medium at 50 ng/mL to stimulate respiratory epithelial cells” the “KCNMA1 (47575_g_at) expression change” value (lot 2, Day 3, AI) was −3.5, the “KCNMA1 (53796_at) expression change” value (lot 2, Day 3, AI) was −4.8 and the “KIAA0878 (48793_at) expression change” value (lot 2, Day 3, AI) was −2.1. For the same substance, the “KLF7 34216_at expression change” value (lot 2, Day 3, AI) was −2.6, the “KLF7 (42769_at) expression change” value (lot 2, Day 3, AI) was −5.7 and the “KRT15 37582_at expression change” value (lot 2, Day 3, AI) was −2.7. For the same substance, the “LOC51297 (49616_at) expression change” value (lot 2, Day 3, AI) was −13.4, the “LOC51297 (55440_at) expression change” value (lot 2, Day 3, AI) was −10.8 and the “LOC51297 (55442_g_at) expression change” value (lot 2, Day 3, AI) was −14.4. The “LOC129642 (42065_at) expression change” value (lot 2, Day 3, AI) was −2.8, the “LOC129642 (58288_at) expression change” value (lot 2, Day 3, AI) was −3 and the “MGC12536 46924_at expression change” value (lot 2, Day 3, AI) was −4.2. For the same substance, the “MGC13102 (54791_at) expression change” value (lot 2, Day 3, AI) was −2.1, the “MGC14128 55924_at expression change” value (lot 2, Day 3, AI) was −3.3 and the “MGC14128 (51669_r_at) expression change” value (lot 2, Day 3, AI) was −3. The “MGC14597 (46030_at) expression change” value (lot 2, Day 3, AI) was −8.5, the “N52554 47432_at expression change” value (lot 2, Day 3, AI) was −2.3 and the “N71183 52473_at expression change” value (lot 2, Day 3, AI) was −2.2. For the same substance, the “PR01489 57777_at expression change” value (lot 2, Day 3, AI) was −3.3, the “PSCA (63958_at) expression change” value (lot 2, Day 3, AI) was −5.5 and the “RAC2 32737_at expression change” value (lot 2, Day 3, AI) was −17.4. The “RGC32 (57044_s_at) expression change” value (lot 2, Day 3, AI) was −2.2, the “SCNN1B 39682_at expression change” value (lot 2, Day 3, AI) was −12.3 and the “SCYB14 (65823_at) expression change” value (lot 2, Day 3, AI) was −2.1. The “SERPINA3 (75248_at) expression change” value (lot 2, Day 3, AI) was −35.8, the “SLC11A3 (45826_at) expression change” value (lot 2, Day 3, AI) was −2.5 and the “SLC34A2 (48048_at) expression change” value (lot 2, Day 3, AI) was −4.3. The “SPON2 52576_s_at expression change” value (lot 2, Day 3, AI) was −3.1, the “STEAP 40297_at expression change” value (lot 2, Day 3, AI) was −2.6 and the “TCF8 33439_at expression change” value (lot 2, Day 3, AI) was −2.7. For the same substance, the “TGFBI (68339_at) expression change” value (lot 2, Day 3, AI) was −2.8, the “TNFAIP2 (74633_at) expression change” value (lot 2, Day 3, AI) was −2.2 and the “TNRC3 41246_at expression change” value (lot 2, Day 3, AI) was −2. For the same substance, the “TPM1 36790_at expression change” value (lot 2, Day 3, AI) was −5.4, the “TPM1 36791_g_at expression change” value (lot 2, Day 3, AI) was −3.5 and the “TPM1 36792_at expression change” value (lot 2, Day 3, AI) was −5. For the same substance, the “UCP2 37591_at expression change” value (lot 2, Day 3, AI) was −2.3, the “UGB 39220_at expression change” value (lot 2, Day 3, AI) was −17.8 and the “VEGFC 1934_s_at expression change” value (lot 2, Day 3, AI) was −2.5. For the same substance, the “VIM 34091_s_at expression change” value (lot 2, Day 3, AI) was −3.1, the “W72331 49486 at expression change” value (lot 2, Day 3, AI) was −7.8 and the “AA149682 (51925_at) expression fold change” value (lot 2, Day 3, AI method) was 2.2 fold. For the same substance, the “AA167714 (54897_at) expression fold change” value (lot 2, Day 3, AI method) was 2.9 fold, the “AA420479 (52539_at) expression fold change” value (lot 2, Day 3, AI method) was 2.2 fold and the “AA541787 (52622_at) expression fold change” value (lot 2, Day 3, AI method) was 2.2 fold. The “AA582926 (52307_at) expression fold change” value (lot 2, Day 3, AI method) was 2.2 fold, the “AA604375 (44127_at) expression fold change” value (lot 2, Day 3, AI method) was 2.1 fold and the “ADAM8 (40712_at) expression, fold change upon IL-13 stimulation” value (lot 2, Day 3, AI method) was 2.7 fold. For the same substance, the “ADAM28 (35479_at) expression, fold change upon IL-13 stimulation” value (lot 2, Day 3, AI method) was 3.5 fold, the “AI310524 (47087_at) expression fold change” value (lot 2, Day 3, AI method) was 2 fold and the “AI565105 (54886_at) expression fold change” value (lot 2, Day 3, AI method) was 2.2 fold. The “AI659927 (54033_at) expression fold change” value (lot 2, Day 3, AI method) was 4.6 fold, the “AI718385 (53061_at) expression fold change” value (lot 2, Day 3, AI method) was 2.2 fold and the “AI809925 (53010_at) expression fold change” value (lot 2, Day 3, AI method) was 2.2 fold. For the same substance, the “AI989346 (52327_s_at) expression fold change” value (lot 2, Day 3, AI method) was 2.2 fold, the “AKAP2 (35985_at) expression, fold change upon IL-13 stimulation” value (lot 2, Day 3, AI method) was 2.5 fold and the “AKAP2 (48035_at) expression fold change” value (lot 2, Day 3, AI method) was 3 fold. The “ALOX15 (34636_at) expression, fold change upon IL-13 stimulation” value (lot 2, Day 3, AI method) was 112.2 fold, the “ARL7 (57151_at) expression fold change” value (lot 2, Day 3, AI method) was 6.1 fold and the “AW019985 (48826_s_at) expression fold change” value (lot 2, Day 3, AI method) was 9.8 fold. For the same substance, the “BAL (52167_at) expression fold change” value (lot 2, Day 3, AI method) was 2.7 fold, the “BRCA1 (626_s_at) expression fold change” value (lot 2, Day 3, AI method) was 19.3 fold and the “BST2 (39061_at) expression, fold change upon IL-13 stimulation” value (lot 2, Day 3, AI method) was 5.8 fold. For the same substance, the “C21orf11 (58957_at) expression fold change” value (lot 2, Day 3, AI method) was 7.1 fold, the “CCND3 (1794_at) expression fold change upon IL-13 stimulation” value (lot 2, Day 3, AI method) was 2.3 fold and the “CCND3 (1795_g_at) expression fold change upon IL-13 stimulation” value (lot 2, Day 3, AI method) was 2.4 fold. For the same substance, the “CD47 (37890_at) expression fold change” value (lot 2, Day 3, AI method) was 2.4 fold, the “CDH6 (1620_at) expression fold change upon IL-13 stimulation” value (lot 2, Day 3, AI method) was 5.6 fold and the “CDH6 (57421_at) expression fold change” value (lot 2, Day 3, AI method) was 2.9 fold. The “CDH26 (46916_at) expression fold change” value (lot 2, Day 3, AI method) was 10.5 fold, the “CH25H (32363_at) expression, fold change upon IL-13 stimulation” value (lot 2, Day 3, AI method) was 14.9 fold and the “CLDN1 (46260_at) expression fold change” value (lot 2, Day 3, AI method) was 2.4 fold. The “CLDN4 (35276_at) expression, fold change upon IL-13 stimulation” value (lot 2, Day 3, AI method) was 2.2 fold, the “CTSC (133_at) expression, fold change upon IL-13 stimulation” value (lot 2, Day 3, AI method) was 3.9 fold and the “CXCL16 (44095_at) expression fold change” value (lot 2, Day 3, AI method) was 2.3 fold. The “DBCCR1 (40292_at) expression, fold change upon IL-13 stimulation” value (lot 2, Day 3, AI method) was 7.9 fold, the “DD96 (31610_at) expression, fold change upon IL-13 stimulation” value (lot 2, Day 3, AI method) was 5.3 fold and the “DKFZP564O0823 (41402_at) expression, fold change upon IL-13 stimulation” value (lot 2, Day 3, AI method) was 5.4 fold. For the same substance, the “DKFZP566J091 (57197_at) expression fold change” value (lot 2, Day 3, AI method) was 45.3 fold, the “DKFZp564N1116 (37784_at) expression, fold change upon IL-13 stimulation” value (lot 2, Day 3, AI method) was 5 fold and the “DNAJA1 (276_at) expression fold change upon IL-13 stimulation” value (lot 2, Day 3, AI method) was 2.2 fold. The “DPP4 (34823_at) expression fold change upon IL-13 stimulation” value (lot 2, Day 3, AI method) was 7.6 fold, the “DPYD (38220_at) expression fold change upon IL-13 stimulation” value (lot 2, Day 3, AI method) was 3.9 fold and the “EMILIN-2 (51628_at) expression fold change” value (lot 2, Day 3, AI method) was 2.9 fold. The “FABP4 (38430_at) expression, fold change upon IL-13 stimulation” value (lot 2, Day 3, AI method) was 2.5 fold, the “FBP1 (36495_at) expression fold change upon IL-13 stimulation” value (lot 2, Day 3, AI method) was 4.4 fold and the “FETUB (32620_at) expression fold change” value (lot 2, Day 3, AI method) was 37.6 fold. For the same substance, the “FETUB (33101_g_at) expression fold change” value (lot 2, Day 3, AI method) was 24.7 fold, the “FLJ10261 (43366_at) expression fold change” value (lot 2, Day 3, AI method) was 11.2 fold and the “FLJ10261 (43963_at) expression fold change” value (lot 2, Day 3, AI method) was 14.4 fold. For the same substance, the “FLJ22693 (53777_at) expression fold change” value (lot 2, Day 3, AI method) was 2.2 fold, the “FUT10 (908_at) expression fold change upon IL-13 stimulation” value (lot 2, Day 3, AI method) was 8.9 fold and the “GADD45G (39154_at) expression fold change upon IL-13 stimulation” value (lot 2, Day 3, AI method) was 5.3 fold. The “GBP5 (52615_at) expression fold change” value (lot 2, Day 3, AI method) was 4.5 fold, the “GS3686 (36927_at) expression, fold change upon IL-13 stimulation” value (lot 2, Day 3, AI method) was 6.4 fold and the “HAS3 (54604_at) expression fold change” value (lot 2, Day 3, AI method) was 2 fold. For the same substance, the “HDAC9 (37483_at) expression fold change upon IL-13 stimulation” value (lot 2, Day 3, AI method) was 3.7 fold, the “HS3ST1 (41556_s_at) expression fold change upon IL-13 stimulation” value (lot 2, Day 3, AI method) was 5.8 fold and the “HSPA5 (47634_at) expression fold change” value (lot 2, Day 3, AI method) was 3.7 fold. The “ICAMt (32640_at) expression fold change upon IL-13 stimulation” value (lot 2, Day 3, AI method) was 2.8 fold, the “IFI27 (425_at) expression, fold change upon IL-13 stimulation” value (lot 2, Day 3, AI method) was 2.5 fold and the “IFI27 (48864_at) expression fold change” value (lot 2, Day 3, AI method) was 2.1 fold. For the same substance, the “IFI35 (464_s_at) expression, fold change upon IL-13 stimulation” value (lot 2, Day 3, AI method) was 4.5 fold, the “IFI44 (37641_at) expression, fold change upon IL-13 stimulation” value (lot 2, Day 3, AI method) was 3.8 fold and the “IFIT1 (915_at) expression, fold change upon IL-13 stimulation” value (lot 2, Day 3, AI method) was 9 fold. The “IFIT1 (32814_at) expression, fold change upon IL-13 stimulation” value (lot 2, Day 3, AI method) was 4 fold.
